SMILES strings stand for the structures. Where two headings read alike, the source gives them in different places. Some results are limits rather than exact numbers.

One series deals with T1, Mcl-1 (Homo sapiens, UniProt Q07820).
T1 construct: Briefly, a previously reported construct was subcloned into an expression vector (pDEST-HisMBP); MBP (from vector pDEST-HisMBP); made in house; host or cells: Escherichia coli BL21 CodonPlus (DE3) RIL
In words: TR-FRET binding assay (FITC-Bak peptide competition). From the text: Protein preparation was described previously. Briefly, a previously reported construct was subcloned into an expression vector (pDEST-HisMBP) expressed in Escherichia coli BL21 CodonPlus (DE3) RIL (Stratagene) and purified through nickel-column and size-exclusion chromatography sequentially.
Mixtures containing vehicle without compound served as a negative control, while mixtures containing no protein served as a positive control. […] Two or more repeats were obtained and average K i values are reported.
Background: In TR-FRET formats the signal depends on donor and acceptor labels being close together.

For a further series, the system named is NCI-H929 cells. The series is described as follows: In vitro proliferation assay (CellTiter-Glo), H929. Format: cell-based. The settings on record: Homo sapiens. As to the method: (§1) NCI-H929, A427, and K562 cell lines were obtained from ATCC. NCI-H929 cells were cultured in RPMI1640 (ATCC-formulated, Catalog No. 30-2001) + 10% fetal calf serum (FCS, GIBCO BRL, Cat. No. 26140) + 0.05 mM mercaptoethanol. A-427 cells were cultured in RPMI1640 (ATCC-formulated, Catalog No. 30-2001) + 10% fetal calf serum (FCS, GIBCO BRL, Cat. No. 26140). K562 cell lines were cultured in Iscove’s Modified Dulbecco Medium (Gibco-formulated, purchased from Thermo-Fisher, Cat. No. 12440-053) + 10% fetal bovine serum (FBS, Sigma-Aldrich, F2442). All cell lines were cultured at 37 °C with 5% CO2 in a humidified incubator and have been regularly tested negatively for mycoplasm contamination.
(§2) Cells were seeded at 750–1500 cells per well (depending on growth kinetics) in 384-well plates (Corning, Catalog No. 3707) or at 3000 cells per well in 96-well plates in the respective growth medium and allowed to settle overnight. Suspension cells were plated immediately before compound addition. Adherent cell lines were incubated overnight at 37 °C in a tissue culture incubator prior to compound addition. Compounds were added in triplicates using an HP D300e Digital Dispenser (Hewlett-Packard) or manually at the concentrations indicated and total volumes were normalized using DMSO backfill, with final DMSO concentration of 0.5%. Control wells were treated with DMSO only. Following incubation for 72 or 96 h, a Cell Titer-Glo assay was conducted following the manufacturer recommendations (Promega, G9243) and luminescence was measured using a Victor X5 (PerkinElmer) or a Cytation 3 (Biotek) plate reader. % Viability was defined as relative luminescence units (RLU) of each well divided by the RLU of cells on day 0. Four parameter sigmoidal dose–response curves were generated and IC50 values were determined using XLFit (IDBS) software (eq 205) or in-house software. Drug combination experiments were performed in 96-well or 384-well format and drug synergy was determined using the BLISS model (PMID: 26171228).
A general note: In ATP-based viability assays light output follows the ATP content of the culture.

For the next series, the system named is A427 cells. In words: In vitro proliferation assay (CellTiter-Glo), A427. Format: cell-based. The settings on record: Homo sapiens, A-427. The protocol:
as §1, §2

In the next series the test system is K562 cells. In words: In vitro proliferation counterscreen, Mcl-1 insensitive K562. Format: cell-based. The following applies: Homo sapiens; Mcl-1 insensitive K562; top concentration tested 12.5 µM. As to the method:
NCI-H929, A427, and K562 cell lines were obtained from ATCC.
Suspension cells were plated immediately before compound addition. Adherent cell lines were incubated overnight at 37 °C in a tissue culture incubator prior to compound addition. Compounds were added in triplicates using an HP D300e Digital Dispenser (Hewlett-Packard) or manually at the concentrations indicated and total volumes were normalized using DMSO backfill, with final DMSO concentration of 0.5%. Control wells were treated with DMSO only. Following incubation for 72 or 96 h, a Cell Titer-Glo assay was conducted following the manufacturer recommendations (Promega, G9243) and luminescence was measured using a Victor X5 (PerkinElmer) or a Cytation 3 (Biotek) plate reader. % Viability was defined as relative luminescence units (RLU) of each well divided by the RLU of cells on day 0.
(In general: A counterscreen serves to expose hits that act by an unwanted route or on another target.)

Series [1] concerns caspase 3/7 in H929 cells. In words: Caspase 3/7 induction assay (Caspase-Glo), H929. It is filed as cell-based. The settings on record: compound treatment for 3 h; for EC50: Homo sapiens, NCI-H929. The protocol: (§3) Cells were treated with a 10-point compound titration and incubated at 37 °C for 3 h.
Series [2] deals with caspase 3/7 in A427 cells. In words: Caspase 3/7 induction assay (Caspase-Glo), A427. The following applies: compound treatment for 3 h; for EC50: Homo sapiens, A-427. Format: cell-based. As to the method:
as §3

The test system of series [3] is caspase 3/7 in K562 cells. In words: Caspase 3/7 induction assay (Caspase-Glo), K562. The following applies: compound treatment for 3 h; for EC50: Homo sapiens, K562. Format: cell-based. As to the method: as §3
The nature of series [4]: Mouse pharmacokinetic analyses (i.v. and oral). It is filed as in vivo. The following applies: plasma; for AUC: dose not printed at this place. The protocol:
For PK analysis, mice were administered intravenously or orally with compound formulated in 10% ethanol and 10% Cremophor EL. Compound 13 dosing was also screened with 20% Phosphal IPG, 20% Phosphal MCT, 10% HP-β-CD, and 40% HP-β-CD. Plasma samples were obtained at predefined time points and compound concentrations in plasma were measured by quantitative HPLC–MS/MS using an internal standard. Calibration and quality control samples were prepared using blank plasma from untreated animals. Samples were precipitated with acetonitrile and injected into a HPLC system (Agilent 1200). Separation was performed by gradients of 5 mmol/L ammonium acetate pH 5.0 and acetonitrile with 0.1% formic acid on a Luna C8 reversed-phase column with 2.5 μm particles (Phenomenex). The HPLC was interfaced by ESI operated in positive ionization mode to a triple quadrupole mass spectrometer (6500+ Triple Quad System, SCIEX) operated in multiple reaction monitoring mode. Chromatograms were analyzed with Analyst (SCIEX) and pharmacokinetic parameters were calculated by noncompartmental analysis using proprietary software.

The mark [5] stands for this setting: in the presence of 1% fetal bovine serum, average of at least n = 2, read-out: TRFRET, Mcl-1 Ki.
The mark [6] stands for this setting: supplementary CSV, unit inferred, read-out: Ki TRFRET.
Setting [7] is: H929 cell line, average of at least n = 2, triplicate.
The mark [8] stands for this setting: A427 cell line, average of at least n = 2, triplicate.
The mark [9] stands for this setting: iv, dosed at 20 mg/kg, read-out: i.v. mouse CL.
The mark [10] stands for this setting: iv, supplementary CSV, unit not given (Table 1: 20 mg/kg, 14 and 16 at 10 mg/kg), read-out: CL.
Where [11] appears, read: supplementary CSV, unit inferred.

T1 sequence (Q07820 whole entry): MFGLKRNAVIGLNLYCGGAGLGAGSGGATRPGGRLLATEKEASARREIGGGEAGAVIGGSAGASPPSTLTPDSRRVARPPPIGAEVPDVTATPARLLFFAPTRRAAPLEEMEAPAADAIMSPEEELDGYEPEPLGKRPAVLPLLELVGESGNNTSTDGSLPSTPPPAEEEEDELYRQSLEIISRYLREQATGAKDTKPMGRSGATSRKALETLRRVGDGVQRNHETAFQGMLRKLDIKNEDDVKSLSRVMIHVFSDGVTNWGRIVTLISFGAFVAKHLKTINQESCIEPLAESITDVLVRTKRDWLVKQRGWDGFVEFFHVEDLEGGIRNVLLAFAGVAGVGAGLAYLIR

Turning to `COc1cc2c3c(cc(C(=O)N(C)C)n3CCCOCc3nn(C)cc3-c3c(Cl)ccc4c(CCCOc5cc(C)c(Cl)c(C)c5)c5n(c34)[C@H](C)CN2C5=O)c1OC` [Compound 25, (2^63^4 S a ,1^72^2 R a ,2^4 R)-2^7-chloro-2^10-(3-(4-chloro-3,5-dimethylphenoxy)propyl)-1^4,1^5-dimethoxy-N,N,2^4,3^1-tetramethyl-2^1-oxo-2^1,2^2,2^3,2^4-tetrahydro-1^1 H,3^1 H-5-oxa-2(2,6)-pyrazino[1,2-a]indola-1(7,1)-indola-3(4,3)-pyrazolacyclooctaphane-1^2-carboxamide], the Ki at Mcl-1 (setting [5]) is less than 0.08 nM; on Mcl-1 (setting [6]) it was 0.077 nM. The GI50 in the series with NCI-H929 cells (setting [7]) was 39 ± 7 nM; with A427 cells (setting [8]), 105 ± 24 nM; in the series with K562 cells, more than 12500 nM. The EC50 in series [1] is 17 nM; in series [2], 24 nM; in series [3], more than 3120 nM. Also, the “H929 Caspase 3/7 maximum activity, fold over vehicle (FoV)” value in series [1] is 16 fold. Moreover, the “A427 Caspase 3/7 fold over vehicle (FoV)” value in series [2] turned out to be 14 fold. The “K562 Caspase 3/7 fold over vehicle (FoV)” value in series [3] stood at 1.4 fold. Besides, the AUC in series [4] (iv, read-out: AUCIV) was 136 µM·h; in series [4] (oral, read-out: AUCPO), 14 µM·h. Besides, the clearance in series [4] (setting [9]) and in series [4] (setting [10]) was 6.4 mL/min/kg throughout. Moreover, the bioavailability in series [4] (po, read-out: oral bioavailability (F)) was determined as 22%.

As for `COc1cc(N2C[C@@H](C)n3c(c(CCCOc4cc(C)c(Cl)c(C)c4)c4ccc(Cl)c(-c5c(C)nn(C)c5C)c43)C2=O)c2c(cc(C(=O)O)n2C)c1OC` [Compound 9], the clearance in series [4] (setting [9]) and in series [4] (setting [10]) was 70 mL/min/kg each time.

Consider `COc1cc2c3c(c1)cc(C(=O)O)n3CCCOCc1nn(C)cc1-c1c(Cl)ccc3c(CCCOc4cc(C)c(Cl)c(C)c4)c4n(c13)[C@H](C)CN2C4=O` [Compound 15, (2^63^4 S a ,1^72^2 R a ,2^4 R)-2^7-Chloro-2^10-(3-(4-chloro-3,5-dimethylphenoxy)propyl)-1^5-methoxy-2^4,3^1-dimethyl-2^1-oxo-2^1,2^2,2^3,2^4-tetrahydro-1^1 H,3^1 H-5-oxa-2(2,6)-pyrazino[1,2-a]indola-1(7,1)-indola-3(4,3)-pyrazolacyclooctaphane-1^2-carboxylic Acid], for which the Ki at Mcl-1 (setting [5]) is less than 0.08 nM; at Mcl-1 (setting [6]), 0.04 nM. For the same compound, the GI50 in the series with NCI-H929 cells (setting [7]) is 38 ± 11 nM; with A427 cells (setting [8]), 60 ± 24 nM; in the series with K562 cells, more than 12500 nM. Moreover, the EC50 in series [1] was 43 nM; in series [2] it was 34 nM; in series [3] it was more than 3120 nM. Further, in series [1], the “H929 Caspase 3/7 maximum activity, fold over vehicle (FoV)” value was 17 fold. For the same compound, the “A427 Caspase 3/7 fold over vehicle (FoV)” value in series [2] turned out to be 15 fold. Further, the “K562 Caspase 3/7 fold over vehicle (FoV)” value in series [3] was 1.3 fold.

In the case of `COc1cc2c3c(cc(C(=O)O)n3CCCOCc3c(c(C)nn3C)-c3c(Cl)ccc4c(CCCOc5cc(C)c(Cl)c(C)c5)c5n(c34)[C@H](C)CN2C5=O)c1OC` [Compound 11, (2^63^4 S a ,1^72^2 R a ,2^4 R)-2^7-Chloro-2^10-(3-(4-chloro-3,5-dimethylphenoxy)propyl)-1^4,1^5-dimethoxy-2^4,3^1,3^3-trimethyl-2^1-oxo-2^1,2^2,2^3,2^4-tetrahydro-1^1 H,3^1 H-5-oxa-2(2,6)-pyrazino[1,2-a]indola-1(7,1)-indola-3(4,5)-pyrazolacyclooctaphane-1^2-carboxylic Acid], the values for the Ki on Mcl-1 (setting [5]) and at Mcl-1 (setting [6]) were 0.08 ± 0.01 nM and 0.04 nM, respectively. In addition, the GI50 in the series on NCI-H929 cells (setting [11]) was 24 nM; with A427 cells (setting [11]), 64 nM; with K562 cells it was more than 12500 nM.

Regarding `COc1cc2c3c(cc(C(=O)O)n3CCCOCc3nn(C)cc3-c3cccc4c(CCCOc5cc(C)c(Cl)c(C)c5)c5n(c34)[C@H](C)CN2C5=O)c1OC` [Compound 23, (2^63^4 R a ,1^72^2 R a ,2^4 R)-2^10-(3-(4-Chloro-3,5-dimethylphenoxy)propyl)-1^4,1^5-dimethoxy-2^4,3^1-dimethyl-2^1-oxo-2^1,2^2,2^3,2^4-tetrahydro-1^1 H,3^1 H-5-oxa-2(2,6)-pyrazino[1,2-a]indola-1(7,1)-indola-3(4,3)-pyrazolacyclooctaphane-1^2-carboxylic Acid], the Ki at Mcl-1 (setting [5]) is less than 0.08 nM; on Mcl-1 (setting [6]), less than 0.02 nM. Further, the GI50 with NCI-H929 cells (setting [7]) was 15 ± 4 nM; with A427 cells (setting [8]), 32 ± 4 nM; in the series with K562 cells, more than 12500 nM.

Turning to `COc1cc2c3c(cc(C(=O)O)n3CCCCOCc3nn(C)c(C)c3-c3c(Cl)ccc4c(CCCOc5cc(C)c(Cl)c(C)c5)c5n(c34)[C@H](C)CN2C5=O)c1OC` [Compound 12, (2^63^4 S a ,1^72^2 R a ,24R)-2^7-Chloro-2^10-(3-(4-chloro-3,5-dimethylphenoxy)propyl)-1^4,1^5-dimethoxy-2^4,3^1,3^5-trimethyl-2^1-oxo-2^1,2^2,2^3,2^4-tetrahydro-1^1 H,3^1 H-5-oxa-2(2,6)-pyrazino[1,2-a]indola-1(7,1)-indola-3(4,3)-pyrazolacyclononaphane-1^2-carboxylic Acid], on Mcl-1 (setting [6]), the Ki amounted to 0.12 nM. For the same compound, the figures for the GI50 in the series with NCI-H929 cells (setting [11]), in the series on A427 cells (setting [11]) and with K562 cells were 39 nM, 87 nM and more than 7800 nM, respectively.

With `COc1c(OCC2CCOCC2)cc(N2C[C@@H](C)n3c(c(CCCOc4cc(C)c(Cl)c(C)c4)c4ccc(Cl)c(-c5c(C)nc(C)nc5C)c43)C2=O)c2c1cc(C(=O)N(C)C)n2C` [Compound 24, (R)-7-(7-chloro-10-(3-(4-chloro-3,5-dimethylphenoxy)propyl)-4-methyl-1-oxo-6-(2,4,6-trimethylpyrimidin-5-yl)-3,4-dihydropyrazino[1,2-a]indol-2(1H)-yl)-4-methoxy-N,N,1-trimethyl-5-((tetrahydro-2H-pyran-4-yl)methoxy)-1H-indole-2-carboxamide], the Ki at Mcl-1 (setting [5]) stood at 105 ± 8 nM. The GI50 with NCI-H929 cells (setting [7]) was 1100 ± 380 nM; in the series on A427 cells (setting [8]), 3600 ± 140 nM; in the series on K562 cells it was more than 12500 nM. For the same compound, the clearance in series [4] (setting [9]) and in series [4] (setting [10]) was 2 mL/min/kg each time.

Broadly, the Ki is a dissociation constant, usually derived from enzyme kinetics or from competition with a known ligand. The term GI50 denotes the concentration that inhibits growth by half. As usually defined, the EC50 is the concentration needed to bring the measured effect to its halfway point. High values mean lower potency in that assay, low ones higher potency in that assay. By bioavailability is commonly meant dose-corrected exposure relative to a reference, in per cent.

The record behind these values is paper PMC12434668 (Journal of Medicinal Chemistry, 2025).
